Consider 4 molecules from US6436416B1, “Cosmetic skin conditioning compositions containing high performing retinyl esters” (Unilever Home & Personal Care USA, division of Conopco, Inc., priority 2000, dated 2002).

For experiment [1], the system named is CRABP-2 expression of pig skin epidermis. Nature of the experiment: CRABP-2 assay. Format: cell-based. Conditions: topical dose 5 μl in ethanol vehicle, four days, control as 100%. The text has this:
Within the cells, retinol and retinoic acid are bound to specific cellular binding proteins. Two of the major proteins are CRABP-1 and CRABP-2 (Roos et al., Pharmacological reviews: 50, 315-333, 1998). These proteins regulate the intracellular concentration of retinoids by acting as either storage or shuttle proteins in retinoid metabolism. The levels of CRABP protein are regulated by the amount of retinoic acid within the cells. Higher cellular levels of retinoids increase the expression of CRABP-2. Therefore, the amount of this protein in the cells is a measure of the retinoid activity of the cells. Skin cells contain high levels of CRABP-2 both in the epidermis and the dermis. CRABP-2 response to retinoid administration in is used as a reproducible measure of retinoid bioactivity that predict human skin responses (Elder et al., J. Invest. Dermatol., 106: 517-521, 1996). Increase in CRABP-2 is also associated with increased epidermal differentiation, and dermal retinoid action. Therefore, in these studies we used CRABP-2 expression of pig skin epidermis as a measure of retinoid activity leading to increased epidermal differentiation (skin conditioning and dry skin benefit) and dermal collagen and extracellular matrix synthesis (antiaging, anti wrinkling benefits).
Pig skin was received, scrubbed with Vionex detergent, and dermatomed at a thickness of 0.058 cm and allowed to wash in preliminary medium on a shaker for an hour with three solution changes.
7 mm punches were taken and allowed to sit in final medium overnight. The next day, the medium was refreshed with final medium 1 mL per well. One day later, the plates received fresh final medium,and topically dosed with 5 μl of the active(s) in an ethanol vehicle.
After four days, the biopsies will be removed from the plates, washed with PBS in a concial tube, and frozen at −80° C. for future use.
After thawing, the epidermis was separated and boiled in urea and sample buffer, after which protein quantitation was possible.
16% 15 lane acrylamide gels were loaded ewith the appropriate samples and run until all the proteins were separated based upon their molecular weight.
The gels were transferred onto PVDF membranes at 25 constant Volts for 2.5 hours.
The membranes were blocked with 5% milk in TBST (Tween 0.05%) for one hour at room temperature.
Primary Ab exposure 1:1,000 in 1% milk TBS soln for one hour, followed by six washes with TBST over a period of one hour. […]
The bands in the film were quantified by densitometric scanning, the data from triplicate samples were calculated as % of control and expressed in the following tables as % increase over control (with control as 100%).

The test system of a further experiment is Procollagen I. Nature of the experiment: Procollagen I assay. Format: cell-based, human. Particulars: fibroblasts, control at 100%. The text has this: Collagen is a predominant skin protein. Its synthesis decreases with aging or photodamage. The degradation or destruction of collagen […] the tensile strength of the skin causing wrinkles and laxity. Many studies involving human subjects have shown that collagen type I is decreased with increasing severity of photodamage (See Kligman, A., JAMA, (1969), 210, pp. 2377-2380; Lavker, R., J. Inv Derm., (1979), 73, 79-66; Smith J. et al., J. lnv. Derm., (1962), 39, pp. 347-350; and Shuster, S. et al., Br. J. Dermatol., (1975), 93, pp. 639-643); and some correlation in the histology of wrinkles and reduction in collagen levels in the sun-exposed skin has been reported. See Chen, S.; Kiss, I., J. Inv. Derm., (1992), 98. pp. 248-254. Voorhees and colleagues have supported these findings by showing the restoration of collagen type I in photo-damaged human skin by a topical treatment with tretinoin. See Christopher, E., et al., The New Eng. Jou. of Medicine (1993), 329, pp. 530-535. Procollagen I is a precursor of collagen. Increased production of procollagen I in response to a test compound application is a marker of an increased collagen level.
Seed passage 3 (P3) fibroblasts in 6-well tissue culture treated dishes at a density of ˜10,000 cells/well.
Culture cells until ˜70% confluent in high glucose Dulbecco's Modified Eagles Medium (DMEM).
When cells are ˜70% confluent, replace with fresh medium, dose with actives and continue culturing until cells are 100% confluent.
Remove media and store at 4° C.
Dilute 20 μl conditioned (treated) media in 200 μl unconditioned DMEM.
Soak nitrocellulose membrane and 3 sheets of filter paper in 1×TBS (tris buffered saline, pH=7.3).
Set up Bio-Rad slot blot apparatus with filter paper on bottom, nitrocellulose membrane on top. Add 100 μl TBS/well. Vacuum dry.
Remove membrane from apparatus and place in blocking solution (5% milk powder in phosphate buffered saline (PBS)) for 1 hr at room temperature or overnight at 4° C.
Primary antibody-Remove membrane from blocking solution and incubate for 1.5 hours at room temperature or overnight at 4° C. with 1.5 ml rat anti-human procollagen amino-terminal antibody (Chemicon MAB1912) 1:100 in TBS with 0.1% bovine serum albumin (BSA).
Remove membrane, was 3×(10 minutes/wash) in TBS/0.1% tween 20.
Secondary antibody-incubate for 1 hour at room temperature or overnight at 4° C. in 2 ml 1:1000 biotinylated anti-rat peroxidase conjugated antibody (Vector Labs).
Remove membrane from secondary antibody and was 3×(10 minutes/wash) in TBS/0.1% tween 20.
Preincubate 3 ml PBS with 30 μl each of solutions A and B from Vectastain kit for 30 minutes. […]
Scan using a laser densitometer and quantified as % over control (with control at 100%).

`CCCCC/C=C/C/C=C/C/C=C/CCCCC(=O)OC/C=C(C)/C=C/C=C(C)/C=C/C1=C(C)CCCC1(C)C` [Gamma-retinyl linolenate, Retinyl-cis-6,9,12-Octadecatrienoate]: the “% over control” value in experiment [1] (concentration 10^−4 M) was 882 % over control; in the experiment with Procollagen I (Experiment 1, concentration 10^−5 M, p < 0.05) it was 225 % over control.

With `CCCCCCCCCCCCCCCC(=O)OC/C=C(C)/C=C/C=C(C)/C=C/C1=C(C)CCCC1(C)C` [Retinyl Palmitate, reference compound], the “% over control” value in experiment [1] (concentration 10^−3 M) came to 444 % over control; in the experiment on Procollagen I (Experiment 3, concentration 10^−7 M, not significant), 24 % over control.

With `CCCCC/C=C/CCCCCCCCCCC(=O)OC/C=C(C)/C=C/C=C(C)/C=C/C1=C(C)CCCC1(C)C` [Retinyl cis-12-Octadecenoate, Retinyl-cis12-Octadecenoate], the “% over control” value in experiment [1] (concentration 10^−4 M) is given as 993 % over control; with Procollagen I (Experiment 2, concentration 10^−6 M, p < 0.05) it was 28 % over control.

For `CCCCCCCCCCC/C=C/CCCCC(=O)OC/C=C(C)/C=C/C=C(C)/C=C/C1=C(C)CCCC1(C)C` [Retinyl petroselinate, Retinyl Petroselinate], the “% over control” value in experiment [1] (concentration 10^−3 M) amounted to 522 % over control; in the experiment on Procollagen I (Experiment 1, concentration 10^−6 M, p < 0.05), 110 % over control.
